For two compounds, EC50 results are on record in article PMC8700777, “Identification of the EdcR Estrogen-Dependent Repressor in Caenibius tardaugens NBRC 16725: Construction of a Cellular Estradiol Biosensor” (Genes, 2021).

Each structure is given as a SMILES string.

The subject of experiment [1] is EdcR (TetR-like repressor, EGO55_13520). As to the kind of experiment: EdcR-dependent Pb-msf-gfp reporter de-repression in E. coli DH10B (with RT-PCR in C. tardaugens ΔedcA). The experiment is classed as cell-based, Escherichia coli DH10B.
Experiment [2] has the same test system. As to the kind of experiment: EdcR-dependent Pb-msf-gfp reporter de-repression in E. coli DH10B. The experiment is classed as cell-based, Escherichia coli DH10B.

`C[C@]12CC[C@@H]3c4ccc(O)cc4CC[C@H]3[C@@H]1CCC2=O` [E1, estrone]: in experiment [1], the midpoint of the response, the EC50, lay at 1.38 µM.

For the compound `C[C@]12CC[C@@H]3c4ccc(O)cc4CC[C@H]3[C@@H]1CC[C@@H]2O` [E2, 17β-estradiol], the concentration giving a half-maximal response (EC50) in experiment [2] was found to be 3.32 µM.

As a reminder, the EC50 is the concentration that produces a half-maximal response. Low values mean higher potency in that assay, high ones lower potency in that assay.
